Measured values taken from patent US20200399222A1, “PICOLINAMIDES AS FUNGICIDES” (Dow AgroSciences LLC, priority 2018, published 2020).
Like-named read-outs stand apart in the source and are kept apart here.

Experiments:
Format in all cases: in vivo
[1] = tested on: Puccinia triticina; experiment: Wheat brown rust (PUCCRT) disease control on wheat seedlings; details: for pest or weed control at 121.5 g/ha: Low volume application; for pest or weed control at 100 ppm: High volume application
Summary of the method: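 Yuma wheat seedlings (first leaf emerged) sprayed to run-off with compound in acetone plus nine volumes water containing 110 ppm Triton X-100, or track-sprayed as EC formulations with 0.1% Trycol 5941. Rust spores inoculated before or after treatment; overnight dark dew, 22 °C, 100% RH, then greenhouse at 24 °C.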

[2] = tested on: Zymoseptoria tritici; experiment: Leaf blotch of wheat (SEPTTR) disease control on wheat seedlings; details: for pest or weed control at 121.5 g/ha: Low volume application; for pest or weed control at 100 ppm: High volume application
[3] = tested on: Phakopsora pachyrhizi; experiment: Asian soybean rust (PHAKPA) disease control on soybean seedlings; details: Phakopsora pachyrhizi, High volume application at 25 ppm
Summary of the method: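 Compounds in acetone diluted with nine volumes of water containing 0.011% Tween 20, sprayed to run-off on two-week-old Williams 82 soybean seedlings; inoculation 3 days before or 1 day after treatment. Plants held 24 h in dark dew room at 22° C, 100% RH, then at 23° C; disease severity scored on sprayed leaves.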

[4] = 24 h, 1 Day Protectant, read-out: PUCCRT disease control rating, 1DP
[5] = 72 h, 3 Day Curative, read-out: PUCCRT disease control rating, 3DC
[6] = 24 h, 1 Day Protectant, read-out: SEPTTR disease control rating, 1DP
[7] = 72 h, 3 Day Curative, read-out: SEPTTR disease control rating, 3DC
[8] = 24 h, 1 day protectant, read-out: PHAKPA 1DP (1 Day Protectant) disease control
[9] = 72 h, 3 day curative, read-out: PHAKPA 3DC (3 Day Curative) disease control

Structure (SMILES)	pest or weed control at 121.5 g/ha [1, 4]	pest or weed control at 121.5 g/ha [1, 5]	pest or weed control at 121.5 g/ha [2, 6]	pest or weed control at 121.5 g/ha [2, 7]	pest or weed control at 25 ppm [3, 8]	pest or weed control at 25 ppm [3, 9]	pest or weed control at 100 ppm [1, 4]	pest or weed control at 100 ppm [1, 5]	pest or weed control at 100 ppm [2, 6]	pest or weed control at 100 ppm [2, 7]
COc1ccnc(C(=O)N[C@@H](C)C(=O)O[C@@H](C)[C@@H](C)C2CCCC2)c1OC(=O)C(C)C [Example 236]	< 80%	< 80%	< 80%	< 0%	> 80%	< 0%				
COc1ccnc(C(=O)N[C@@H](C)C(=O)O[C@H](C)[C@H](C)c2ccccc2C(F)(F)F)c1OC(=O)C(C)C [Example 239]	< 0%	< 0%	< 80%	< 80%	< 80%	< 80%				
COc1ccnc(C(=O)N[C@@H](C)C(=O)O[C@@H](C)[C@@H](C)c2ccc(F)cc2C(F)(F)F)c1OC(=O)C(C)C [Example 235]	< 80%	< 80%	> 80%	> 80%	> 80%	> 80%				
COc1ccnc(C(=O)N[C@@H](C)C(=O)OC(C)C(C)c2c(C)cc(F)cc2C)c1OC(C)=O (stereo partly drawn) [Example 256]	> 80%	> 80%	> 80%	> 80%	> 80%	> 80%				
COc1ccnc(C(=O)N[C@@H](C)C(=O)O[C@@H](C)[C@@H](C)c2ccc(C)cc2C)c1OC(C)=O [Example 177]	> 80%	> 80%	> 80%	> 80%	> 80%	> 80%				
COc1ccnc(C(=O)N[C@@H](C)C(=O)O[C@H](C)[C@H](C)c2ccc(F)cc2C(F)(F)F)c1OC(C)=O [Example 251]	< 80%	< 80%	< 80%	< 80%	> 80%	< 80%				
COc1ccnc(C(=O)N[C@@H](C)C(=O)O[C@H](C)[C@H](C)c2ccccc2C)c1OC(=O)C(C)C [Example 265]	< 80%	< 80%	< 80%	< 80%	> 80%	> 80%				
COc1ccnc(C(=O)N[C@@H](C)C(=O)O[C@@H](C)[C@@H](C)c2ccccc2C(F)(F)F)c1OC(=O)C(C)C [Example 234]	< 80%	< 80%	< 80%	< 80%	> 80%	> 80%				
COc1ccnc(C(=O)N[C@@H](C)C(=O)OC(C)C(C)c2c(C)cccc2C)c1OC(=O)C(C)C (stereo partly drawn) [Example 243]	< 80%	< 80%	< 80%	< 80%	> 80%	> 80%				
COc1ccnc(C(=O)N[C@@H](C)C(=O)O[C@@H](C)[C@@H](C)c2ccccc2C)c1O [Example 175]					> 80%	> 80%	> 80%	> 80%	< 80%	< 80%
COc1ccnc(C(=O)N[C@@H](C)C(=O)O[C@H](C)[C@H](C)c2c(C)cc(F)cc2C)c1OC(=O)C(C)C [Example 242]	> 80%	< 80%	> 80%	> 80%	> 80%	> 80%				
COc1ccnc(C(=O)N[C@@H](C)C(=O)O[C@H](C)[C@H](C)c2ccc(C)cc2C)c1OC(C)=O [Example 178]	< 80%	< 80%	< 80%	< 80%	> 80%	< 80%				
COc1cc(F)ccc1[C@@H](C)[C@@H](C)OC(=O)[C@H](C)n1c(=O)oc2c(OC)ccnc2c1=O [Example 262]	< 0%	< 0%	< 80%	< 80%	< 80%	< 80%				
COc1ccnc(C(=O)N[C@@H](C)C(=O)O[C@@H](C)[C@@H](C)C2CCCC2)c1OC(C)=O [Example 247]	< 80%	< 80%	< 80%	< 80%	> 80%	< 80%				
COc1ccnc(C(=O)N[C@@H](C)C(=O)O[C@@H](C)[C@@H](C)c2ccccc2C(F)(F)F)c1OC(C)=O [Example 245]	> 80%	< 80%	> 80%	> 80%	> 80%	> 80%				
COc1ccnc(C(=O)N[C@@H](C)C(=O)O[C@@H](C)[C@@H](C)c2ccccc2C)c1OC(=O)C(C)C [Example 266]	< 80%	< 80%	< 80%	< 80%	> 80%	> 80%				
COc1ccnc(C(=O)N[C@@H](C)C(=O)O[C@@H](C)[C@@H](C)c2c(C)cccc2C)c1OC(=O)C(C)C [Example 237]	< 80%	< 80%	< 80%	< 80%	> 80%	> 80%				
COc1ccnc(C(=O)N[C@@H](C)C(=O)O[C@@H](C)[C@@H](C)c2c(C)cccc2C)c1OC(C)=O [Example 248]	> 80%	< 80%	< 80%	> 80%	> 80%	> 80%				
COc1ccnc(C(=O)N[C@@H](C)C(=O)O[C@@H](C)[C@@H](C)c2c(C)cc(F)cc2C)c1OC(C)=O [Example 249]	> 80%	> 80%	> 80%	> 80%	> 80%	> 80%				
